Data published in PubChem BioAssay (NCI).
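Cells were grown in 96-well plates and exposed to each compound for 48 hours at five concentrations; endpoints were interpolated linearly between bracketing concentrations, or set to the highest concentration if not reached. GI50 = concentration required for 50% inhibition of growth. TGI denotes the concentration required for complete inhibition of growth.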

Columns and labels:
Test in all cases: DTP human tumour cell line panel, 48 h; in the data active means GI50 below about 0.43 µM; inactive means the rest
[1] = test system: OVCAR-8 ovarian
[2] = test system: SR leukemia
[3] = test system: HT29 colon
[4] = test system: OVCAR-5 ovarian
[5] = test system: RPMI-8226 leukemia
[6] = test system: 786-0 renal
[7] = test system: OVCAR-3 ovarian
[8] = test system: NCI-H522 lung
[9] = test system: KM12 colon
[10] = test system: MDA-MB-231 breast
[11] = test system: U251 CNS
[12] = test system: EKVX NSCLC
[13] = test system: COLO 205 colon
[14] = test system: UO-31 renal
[15] = test system: SF-268 CNS
[16] = test system: T-47D breast
[17] = test system: NCI-H23 lung
[18] = test system: NCI/ADR-RES ovarian
[19] = test system: NCI-H226 lung
[20] = test system: LOX IMVI melanoma
[21] = test system: SK-OV-3 ovarian
[22] = test system: SK-MEL-5 melanoma
[23] = test system: M14 melanoma
[24] = test system: CCRF-CEM leukemia
[25] = test system: SN12C renal
[26] = test system: ACHN renal
[27] = test system: MDA-MB-435
[28] = test system: A498 renal
[29] = test system: HCT-15 colon
[30] = test system: IGROV1 ovarian
[31] = test system: NCI-H460 lung
[32] = test system: SK-MEL-2 melanoma
[33] = test system: SW-620 colon
[34] = test system: CAKI-1 renal
[35] = test system: HOP-92 NSCLC
[36] = test system: TK-10 renal
[37] = test system: K-562 leukemia
[38] = test system: HOP-62 NSCLC
[39] = test system: SF-539 CNS
[40] = test system: PC-3 prostate
[41] = test system: SF-295 CNS
[42] = test system: HCC-2998 colon
[43] = test system: SK-MEL-28 melanoma
[44] = test system: MOLT-4 leukemia
[45] = test system: HS 578T breast
[46] = test system: HCT-116 colon
[47] = test system: SNB-19 CNS
[48] = test system: OVCAR-4 ovarian
[49] = test system: SNB-75 CNS
[50] = test system: DU-145 prostate
[51] = test system: UACC-257 melanoma
[52] = test system: A549 NSCLC
[53] = test system: MCF7 breast
[54] = test system: RXF 393 renal
[55] = test system: MALME-3M melanoma
[56] = test system: HL-60(TB) leukemia
[57] = test system: UACC-62 melanoma

Cc1cc(-c2no[n+]([O-])c2-c2cc(C)sc2S(C)(=O)=O)c(S(C)(=O)=O)s1
75.1 µM: TGI [47]
> 100 µM: TGI [1] | TGI [2] | TGI [3] | TGI [4] | TGI [5] | TGI [6] | TGI [7] | TGI [8] | TGI [9] | TGI [10] | TGI [11] | TGI [12] | TGI [13] | TGI [14] | TGI [15] | TGI [16] | TGI [17] | TGI [18] | TGI [19] | TGI [20] | TGI [21] | TGI [22] | TGI [23] | TGI [24] | TGI [25] | TGI [26] | TGI [27] | TGI [28] | TGI [29] | TGI [30] | TGI [31] | TGI [32] | TGI [33] | TGI [34] | TGI [35] | TGI [36] | TGI [37] | TGI [38] | TGI [39] | TGI [40] | TGI [41] | TGI [42] | TGI [43] | TGI [44] | TGI [45] | TGI [46] | TGI [48] | TGI [49]

CCCCCCCCCCCC[n+]1c(C)cc(N)c2ccccc21
2.47 µM: TGI [43]
1.4 µM: TGI [22]
> 100 µM: TGI [18]
1.19 µM: TGI [35]
0.915 µM: TGI [51]
active: GI50 [22] 0.364 µM | GI50 [51] 0.249 µM | GI50 [35] 0.167 µM | GI50 [48] 0.327 µM
1.6 µM: TGI [48]
inactive: GI50 [4] 1.57 µM | GI50 [50] 0.67 µM | GI50 [18] 3.18 µM | GI50 [21] 1.13 µM | GI50 [32] 1.27 µM | GI50 [43] 1.18 µM
2.72 µM: TGI [32]
2.36 µM: TGI [21]
3.28 µM: TGI [4]
1.97 µM: TGI [50]

Cc1ccc(S(=O)(=O)NC(=O)Nc2ccc(C(=O)O)c(O)c2)cc1
> 100 µM: TGI [1] | TGI [2] | TGI [3] | TGI [4] | TGI [52] | TGI [5] | TGI [6] | TGI [50] | TGI [7] | TGI [9] | TGI [10] | TGI [11] | TGI [12] | TGI [13] | TGI [14] | TGI [15] | TGI [17] | TGI [18] | TGI [19] | TGI [20] | TGI [21] | TGI [22] | TGI [53] | TGI [23] | TGI [24] | TGI [26] | TGI [27] | TGI [28] | TGI [29] | TGI [31] | TGI [32] | TGI [33] | TGI [34] | TGI [54] | TGI [55] | TGI [35] | TGI [36] | TGI [37] | TGI [38] | TGI [39] | TGI [40] | TGI [41] | TGI [56] | TGI [42] | TGI [44] | TGI [57] | TGI [45] | TGI [46] | TGI [47] | TGI [48] | TGI [49]
